Test results published in US6303761A, “Triaminepentaacetic acid compound and paramagnetic metal complex prepared from using the compound as ligand” (Department of Health The Executive Yuan, Republic of China, priority 1999, dated 2001).
Where “and” joins values, the source holds several entries; their conditions need not be identical. Equal entries are not always repeated. Where two headings read alike, the source gives them in different places.

Columns and labels:
[1] = Protonation constants of the organic ligands (potentiometric titration, program PKAS); assay type: physicochemical; details: for pKa: aqueous me4nno3, 25.0 ± 0.1° C., aqueous Me4 NNO3, I = 0.10 mol dm^-3
Method: The ionic strength was 0.10 mol dm^-3 Me4 NNO3 ((CH3)4 NNO3). […] The titrant used was 0.1 mol dm^-3 NaOH with a titration amount of 0.005 ml/time.

[2] = Thermodynamic and conditional stability constants of the Ca^2+ complexes (potentiometric titration, program BEST); assay type: physicochemical; details: 25.0 ± 0.1° C., aqueous Me4 NNO3, I = 0.10 mol dm^-3
Method: (§1) The pH electrode was calibrated using two standard buffer solutions with pH 7.0±0.05 and pH 4.0±0.05 respectively. The ionic strength was 0.10 mol dm^-3 Me4 NNO3 ((CH3)4 NNO3). […] The titrant used was 0.1 mol dm^-3 NaOH with a titration amount of 0.005 ml/time.
(§2) (1) Direct Potentiometric Titration: The metal ion and ligand is mixed in 1:1 molar ratio.
(§3) (2) Ligand-ligand Competition Titration: The metal ion, ligand, and EDTA is mixed in 1:1:1 molar ratio.
(§4) M: metal ion, L: organic ligand, ML: metal complex The conditional stability constant is defined by equation (2): [formula]
(§5) The relationship between the conditional stability constant and the thermodynamic stability constant is defined by equation (3): [formula]
(§6) K2^H [H^+ ]^2 + . . . }^-1 =KthermαH

[3] = Thermodynamic and conditional stability constants of the Zn^2+ complexes (potentiometric titration, program BEST); assay type: physicochemical; details: 25.0 ± 0.1° C., aqueous Me4 NNO3, I = 0.10 mol dm^-3
Method: as §1, §2, §3, §4, §5, §6

[4] = Thermodynamic and conditional stability constants of the Cu^2+ complexes (potentiometric titration, program BEST); assay type: physicochemical; details: 25.0 ± 0.1° C., aqueous Me4 NNO3, I = 0.10 mol dm^-3
Method: as §1, §2, §3, §4, §5, §6

[5] = Selectivity constant of the ligand for Gd^3+ over Zn^2+; assay type: physicochemical
[6] = Selectivity constant of the ligand for Gd^3+ over Cu^2+; assay type: physicochemical
[7] = Selectivity constant of the ligand for Gd^3+ over Ca^2+; assay type: physicochemical
[8] = assay type: physicochemical
[9] = Species distribution of the ligands at various pH values (SPE, SPEPLOT); assay type: physicochemical; details: 7.0×10^-3 mol dm^-3 system
Source text: The average difference between observed and calculated -log[H^+ ] was <0.04 throughout all titrations.
When pH=7.0, the concentration of [H2 L]^3- is the maximum (97.5%). In the pH 3-5 range, the dominant species is the third protonated species [H3 L]^2-. When pH=3.7, the concentration of [H3 L]^2- is the maximum (87.75%). […] When pH=9.8, the concentration of [HL]^4- is the maximum (77.5%). In the pH 2-3 range, the dominant species is the fourth protonated species [H4 L]^-. When pH=2.3, the concentration of [H4 L]^- is the maximum (60.9%). In the pH range greater than 11, the dominant species is the deprotonated species [L]^5-.
When pH=2.7, the concentration of [H4 L]^- is the maximum (55.9%). In the pH 3.5-7 range, the dominant species is the third protonated species [H3 L]^2-. When pH=5, the concentration of [H3 L]^2- is the maximum (97.7%). In the pH 7-9 range, the dominant species is the second protonated species [H2 L]^3-. When pH=8.1, the concentration of [H2 L]^3- is the maximum (86.5%). […] When pH=9.9, the concentration of [HL]^4- is the maximum (71.6%). In the pH range greater than 12, the dominant species is the deprotonated species [L]^5-. In the pH range less than 2, the dominant species is the totally protonated species [H5 L].
When pH=2.8, the concentration of [H4 L]^- is the maximum (45.9%). In the pH 3.5-7.5 range, the dominant species is the third protonated species [H3 L]^2-. When pH=5.2, the concentration of [H3 L]^2- is the maximum (99.0%). In the pH 8-9.5 range, the dominant species is the second protonated species [H2 L]^3-. When pH=8.6, the concentration of [H2 L]^3- is the maximum (78.8%). In the pH 9.5-11 range, the dominant species is the first protonated species [HL]^4-. When pH=10.1, the concentration of [HL]^4- is the maximum (67.2%). In the pH range greater than 12, the dominant species is the deprotonated species [L]^5-. In the pH range less than 2, the dominant species is the totally protonated species [H5 L].

[10] = for log K [GdL]/[Gd][L]: 25.0 ± 0.1° C., aqueous Me4 NNO3, I = 0.10 mol dm^-3
pM value, Gd^3+ = details: pH 7.4, TL 1.1×10^-5, TM 1.0×10^-6 mol dm^-3
pM value, Ca^2+ = details: pH 7.4, TL 1.1×10^-5, TM 1.0×10^-6 mol dm^-3
pM value, Zn^2+ = details: pH 7.4, TL 1.1×10^-5, TM 1.0×10^-6 mol dm^-3
pM value, Cu^2+ = details: pH 7.4, TL 1.1×10^-5, TM 1.0×10^-6 mol dm^-3
liver = assay: MR imaging, liver enhancement, healthy rat; assay type: in vivo; details: 0.1 mmol/kg
Method: (§7) Sodium pentobarbital was injected into the tail veins of […] rats (which have a healthy liver or tumorous liver) in a dosage of 40-50 mg/kg. The rats were placed on the head coil of an 1.5 T magnetic resonance imaging instrument. The T1-weighted (TR/Te, 15/6.1 msec) image was obtained by turbo field echo with the number of signal average. The field of view (FOV), the cross-sectional thickness, and the image matrix were 22 cm, 4 mm, and 128×256 respectively.
(§8) Before injecting the contrast agent, a set of T1-weighted baseline images were taken. In the first five minutes, the images were taken at a very short time interval in order to evaluate the dynamic enhancement condition. Afterwards, the images were taken every 10, 20, 30, 40, 50, and 60 minutes in order to observe the continuous enhancement effect.
(§9) By means of the computer software contained in the MRI instrument, the region of interest (ROI) can be determined by the operator. The signal intensities (SI) of liver, phantom, and kidney were measured. The enhancement percentage of an organ (liver or kidney) and the enhancement percentage of liver relative to kidney were calculated by the following equations. The statistical method used was Wilcoxon Signed Rank Test. [formula] [formula]

kidney = assay: MR imaging, kidney enhancement, healthy rat; assay type: in vivo; details: 0.1 mmol/kg
Method: as §7, §8, §9

[11] = in vivo; cited from earlier work
[12] = Relaxivity R1 and its pH dependence

O=C(O)CN(CCCN(CC(=O)O)CC(=O)O)CCN(CC(=O)O)CC(=O)O [TTDA, 3,6,10-tri(carboxymethyl)-3,6,10-triazadodecanedioic acid]
basicity, Σ PKa [1]: 27.44
pKa ([1]; read-out: first protonation constant log K1^H, [HL]/[L][H]): 10.6
pKa ([1]; read-out: fourth protonation constant log K4^H, [H4 L]/[H3 L][H]): 2.8
pKa ([1]; read-out: second protonation constant log K2^H, [H2 L]/[HL][H]): 8.92
pKa ([1]; read-out: third protonation constant log K3^H, [H3 L]/[H2 L][H]): 5.12
log K [CaHL]/[CaL][H] [2]: 6.06
log K [ZnHL]/[ZnL][H] [3]: 7.41
log K [CuHL]/[CuL][H] [4]: 5.52
log K [CuL]/[Cu][L] [4]: 19.31
selectivity constant log K(Gd/Zn) [5]: 4.18
selectivity constant log K(Gd/Cu) [6]: 3.46
selectivity constant log K(Gd/Ca) [7]: 8.32
modified selectivity constant log K sel' ([8]; pH 7.4, plasma concentrations of Ca^2+, Cu^2+ and Zn^2+): 8.44
maximum concentration of first protonated species [HL]^4- [9]: 77.5%
maximum concentration of fourth protonated species [H4 L]^- [9]: 60.9%
maximum concentration of second protonated species [H2 L]^3- [9]: 97.5%
maximum concentration of third protonated species [H3 L]^2- [9]: 87.75%
pH of maximum concentration of [H2 L]^3- [9]: 7.0 pH
pH of maximum concentration of [H3 L]^2- [9]: 3.7 pH
pH of maximum concentration of [H4 L]^- [9]: 2.3 pH
pH of maximum concentration of [HL]^4- [9]: 9.8 pH
pH range in which [H2 L]^3- is dominant [9]: 5-9 pH
pH range in which [H3 L]^2- is dominant [9]: 3-5 pH
pH range in which [H4 L]^- is dominant [9]: 2-3 pH
pH range in which [HL]^4- is dominant [9]: 9-10.5 pH
pH range in which deprotonated species [L]^5- is dominant [9]: greater than 11 pH
log K [GdL]/[Gd][L] [10]: 22.77
conditional stability constant log KGdL' ([10]; pH 7.4): 18.04
pM (Gd^3+) (pM value, Gd^3+): 17.03
pM (Ca^2+) (pM value, Ca^2+): 9.73
pM (Zn^2+) (pM value, Zn^2+): 13.22
pM (Cu^2+) (pM value, Cu^2+): 13.58

O=C([O-])CN(CCN(CC(=O)[O-])CC(=O)[O-])CCN(CC(=O)[O-])CC(=O)[O-].[Gd+3] [[Gd(DTPA)]^2-]
modified selectivity constant log K sel' ([8]; pH 7.4): 7.07 and 7.04
time to maximum liver enhancement (liver): ≤ 1 min
liver enhancement after 30 minutes (liver; 30 minutes): 24±7%
maximum liver enhancement (liver; within 1 minute): 57±9%
time to maximum kidney enhancement (kidney): 1 min
kidney enhancement at 30 minutes (kidney; 30 minutes): 109±14%
log K [GdL]/[Gd][L] [10]: 22.46
conditional stability constant (log Kcond) ([10]; pH 4): 11.25
stability constant larger than that of [Gd(DTPA-BMA)] by ([10]; pH 7.4): 3.2
stability constant under physiological conditions (pH 7.4) ([10]; pH 7.4): 22.46
stability constant (log KML) larger than that of [Gd(DTPA-BMA)] by ([10]; pH 11): 5.5
LD50 [11]: 5.6 mmol/kg
Relaxivity R1 ([12]; pH 7.5 ± 0.1): 3.71 dm^3 mmol^-1 s^-1 and 3.71 ± 0.05 dm^3 mmol^-1 s^-1
Relaxivity R1 (conclusion) ([12]; pH not given): 3.70 dm^3 mmol^-1 s^-1
